Laboratory results taken from US6362369B1, “Phthalic acid diamide derivatives fluorine-containing aniline compounds as starting material, agricultural and horticultural insecticides, and a method for application of the insecticides” (Nihon Nohyaku Co., Ltd., priority 1997, dated 2002).

Tests used:
Type in all cases: in vivo
[1] = test system: rice leafroller (Cnaphalocrocis medinalis); assay: Insecticidal effect on rice leafroller (Test Example 3); conditions: 500 ppm, 25° C., humidity 70%; for Insecticidal effect (Test Example 3), judged from mortality / Insecticidal effect on rice leafroller (Test Example 3), judged grade: rice lamina dip; for Insecticidal effect (Test Example 3), judged from mortality: 4 days after inoculation; for Insecticidal effect on rice leafroller (Test Example 3), judged grade: third-instar larvae; for Insecticidal effect on rice leafroller (Test Example 3), judged grade / Insecticidal effect, Test Example 3: four days after inoculation; for Insecticidal effect, Test Example 3: rice lamina immersed
Summary of the method: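 Insecticidal effect is judged by a predefined criterion from dead/alive counts four days after infesting air-dried lamina with third-instar larvae, kept on moistened filter paper at 25° C, 70% humidity.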

[2] = test system: diamondback moth (Plutella xylostella); assay: Insecticidal effect on diamondback moth (Test Example 1); conditions: for Insecticidal effect (Test Example 1), judged from mortality / Insecticidal effect, Test Example 1: diamondback moth; for Insecticidal effect (Test Example 1), judged from mortality: judged by the criterion of Test Example 1; for Insecticidal effect on diamondback moth (Test Example 1), judged grade: mortality judged according to the criterion shown in Test Example 1
Summary of the method: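 Triplicate groups of 10 insects were scored: six days after immersion of oviposited Chinese cabbage seedlings and holding at 25 °C post air-drying, hatched larvae were counted. Mortality derived from these counts and insecticidal effect judged by a set criterion.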

[3] = test system: common cutworm (Spodoptera Litura); assay: Insecticidal effect on common cutworm (Test Example 2); conditions: 500 ppm, 25° C.; for Insecticidal effect (Test Example 2), judged from mortality / Insecticidal effect on common cutworm (Test Example 2), judged grade: cabbage leaf dip; for Insecticidal effect (Test Example 2), judged from mortality: 8 days after inoculation; for Insecticidal effect on common cutworm (Test Example 2), judged grade: second-instar larvae; for Insecticidal effect on common cutworm (Test Example 2), judged grade / Insecticidal effect, Test Example 2: eight days after inoculation; for Insecticidal effect, Test Example 2: cabbage leaf immersed
Summary of the method: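 Mortality is the read-out: larvae are counted as dead or alive on day 8 and the percentage is graded by an effect criterion. Second-instar larvae are kept with the air-dried treated material in a sealed dish at 25° C, in triplicate groups of ten.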

[4] = third-instar larvae of rice leafroller
[5] = second-instar larvae of common cutworm
[6] = judged by the mortality criterion of Test Example 1
[7] = rice leafroller third-instar larvae
[8] = mortality judged by criterion of Test Example 1
[9] = common cutworm second-instar larvae

Structure (SMILES) | Insecticidal effect, Test Example 3 [1, 4] | Insecticidal effect, Test Example 1 [2, 6] | Insecticidal effect, Test Example 2 [3, 5] | Insecticidal effect, Test Example 3 [1, 7] | Insecticidal effect, Test Example 1 [2, 8] | Insecticidal effect, Test Example 2 [3, 9] | other results
Cc1cc(C(F)(C(F)(F)F)C(F)(F)F)cc(C)c1NC(=O)c1cccc(I)c1C(=O)NC(C)C [compound 1716] |  |  |  |  |  |  | Insecticidal effect (Test Example 3), judged from mortality [1, 4]: A (100); Insecticidal effect (Test Example 1), judged from mortality [2]: A (100); Insecticidal effect (Test Example 2), judged from mortality [3, 5]: A (100)
COc1cccc(C(=O)Nc2ccc(Br)cc2C)c1C(=O)NC(C)C [compound 768] |  |  |  |  |  |  | Insecticidal effect on rice leafroller (Test Example 3), judged grade [1]: A (100); Insecticidal effect on diamondback moth (Test Example 1), judged grade [2]: A (100); Insecticidal effect on common cutworm (Test Example 2), judged grade [3]: B (99-90)
Cc1c(Cl)cccc1NC(=O)c1ccc(Cl)cc1C(=O)NC(C)C [compound 176] | A (100) | A (100) | D (79-50) |  |  |  | 
CC(C)(C)NC(=O)c1c(Cl)cccc1C(=O)Nc1ccc2c(c1)OC(F)(F)O2 [compound 1104] |  |  |  | A (100) | A (100) | A (100) | 
CCc1cc(C(F)(F)C(F)(F)F)ccc1NC(=O)c1cccc(I)c1C(=O)N(CC)CC [compound 1559] |  |  |  |  |  |  | Insecticidal effect (Test Example 3), judged from mortality [1, 4]: A (100); Insecticidal effect (Test Example 1), judged from mortality [2]: A (100); Insecticidal effect (Test Example 2), judged from mortality [3, 5]: A (100)
Cc1cc(Oc2cccc(C(F)(F)F)c2)ccc1NC(=O)c1cccc(Br)c1C(=O)NC(C)C [compound 297] | B (99-90) | A (100) | A (100) |  |  |  | 
Cc1cc(OC(F)(F)C(F)Cl)ccc1NC(=O)c1c(Cl)cccc1C(=O)NC(C)C (stereo not drawn) [compound 241] | A (100) | A (100) | B (99-90) |  |  |  | 
CC(C)NC(=O)c1c(I)cccc1C(=O)Nc1ccc(S(=O)(=O)C(F)(F)F)cc1 [compound 1079] |  |  |  | A (100) | A (100) | A (100) | 
CCC(CO)NC(=O)c1c(Cl)cccc1C(=O)Nc1ccc(C(F)(F)C(F)(F)F)cc1C (stereo not drawn) [compound 1316] |  |  |  | A (100) | A (100) | A (100) | 
CCNC(=O)c1cccc(I)c1C(=O)Nc1ccc(C(F)(F)C(F)(F)F)cc1C [compound 1314] |  |  |  | A (100) | A (100) | A (100) | 
CCCN(CCC)C(=O)c1c(I)cccc1C(=O)Nc1ccc(OC(F)(F)F)cc1C [compound 1156] |  |  |  | A (100) | A (100) | A (100) | 
Cc1cc(C#Cc2ccc(Cl)cc2Cl)ccc1NC(=O)c1cccc(Cl)c1C(=O)NC(C)C [compound 971] |  |  |  | A (100) | A (100) | A (100) | 
CCN(CC)C(=O)c1c(I)cccc1C(=O)Nc1ccc(C(F)(F)C(F)(F)F)cc1C [compound 1035] |  |  |  | A (100) | A (100) | A (100) | 
CCNC(=O)c1c(I)cccc1C(=O)Nc1ccc(C(F)(F)C(F)(F)F)cc1F [compound 1502] |  |  |  |  |  |  | Insecticidal effect (Test Example 3), judged from mortality [1, 4]: A (100); Insecticidal effect (Test Example 1), judged from mortality [2]: A (100); Insecticidal effect (Test Example 2), judged from mortality [3, 5]: A (100)
CCN(CC)C(=O)c1c(I)cccc1C(=O)Nc1ccc(C(F)(C(F)(F)F)C(F)(F)F)cc1C [compound 1532] |  |  |  |  |  |  | Insecticidal effect (Test Example 3), judged from mortality [1, 4]: A (100); Insecticidal effect (Test Example 1), judged from mortality [2]: A (100); Insecticidal effect (Test Example 2), judged from mortality [3, 5]: A (100)
Cc1cc(C(F)(F)C(F)(F)C(F)(F)C(F)(F)F)ccc1NC(=O)c1c(F)cccc1C(=O)NC(C)C [compound 557] |  |  |  |  |  |  | Insecticidal effect on rice leafroller (Test Example 3), judged grade [1]: B (99-90); Insecticidal effect on diamondback moth (Test Example 1), judged grade [2]: A (100); Insecticidal effect on common cutworm (Test Example 2), judged grade [3]: C (89-80)
CC(C)NC(=O)c1cccc([N+](=O)[O-])c1C(=O)Nc1ccc(C(F)(F)C(F)(F)C(F)(F)F)cc1Cl [compound 741] |  |  |  |  |  |  | Insecticidal effect on rice leafroller (Test Example 3), judged grade [1]: A (100); Insecticidal effect on diamondback moth (Test Example 1), judged grade [2]: A (100); Insecticidal effect on common cutworm (Test Example 2), judged grade [3]: A (100)
Cc1cc(C(F)(C(F)(F)F)C(F)(F)F)ccc1NC(=O)c1c(I)cccc1C(=O)NC(C)C [compound 439] | A (100) | A (100) | A (100) |  |  |  | 

Structure (SMILES) | Insecticidal effect, Test Example 3 [1, 4] | Insecticidal effect, Test Example 1 [2, 6] | Insecticidal effect, Test Example 2 [3, 5] | Insecticidal effect, Test Example 3 [1, 7] | Insecticidal effect, Test Example 1 [2, 8] | Insecticidal effect, Test Example 2 [3, 9] | other results
CC(C)NC(=O)c1c(I)cccc1C(=O)Nc1ccc(-c2csc(C(F)(F)F)n2)cc1 [compound 1765] |  |  |  |  |  |  | Insecticidal effect (Test Example 3), judged from mortality [1, 4]: A (100); Insecticidal effect (Test Example 1), judged from mortality [2]: A (100); Insecticidal effect (Test Example 2), judged from mortality [3, 5]: A (100)
CON=C(C)c1ccc(NC(=O)c2cccc(I)c2C(=O)NC(C)C)cc1 [compound 1737] |  |  |  |  |  |  | Insecticidal effect (Test Example 3), judged from mortality [1, 4]: A (100); Insecticidal effect (Test Example 1), judged from mortality [2]: A (100); Insecticidal effect (Test Example 2), judged from mortality [3, 5]: C (89-80)
CC(C)NC(=O)c1c(I)cccc1C(=O)Nc1ccc2oc(C(F)(F)C(F)(F)F)nc2c1 [compound 1142] |  |  |  | A (100) | A (100) | A (100) | 
CC(C)(C)NC(=O)c1c(I)cccc1C(=O)Nc1ccc(S(=O)(=O)C(F)(F)F)cc1 [compound 1080] |  |  |  | A (100) | A (100) | A (100) | 
Cc1cc(C(F)(F)F)ccc1NC(=O)c1cccc(I)c1C(=O)NC(C)(C)C [compound 1141] |  |  |  | A (100) | A (100) | A (100) | 
CC(C)NC(=O)c1c(Cl)cccc1C(=O)Nc1ccc(C(F)(F)C(F)(F)C(F)(F)F)cc1 [compound 90] | B (99-90) | A (100) | A (100) |  |  |  | 
CCOP(=O)(OCC)c1ccc(NC(=O)c2cccc(Cl)c2C(=O)NC(C)C)c(C)c1 [compound 161] | A (100) | A (100) | D (79-50) |  |  |  | 
Cc1cc(OC(F)(F)C(F)C(F)(F)F)ccc1NC(=O)c1c(Br)cccc1C(=O)NC(C)C (stereo not drawn) [compound 328] | A (100) | A (100) | A (100) |  |  |  | 
Cc1cc(C(F)(F)C(F)(F)F)ccc1NC(=O)c1cccc(Cl)c1C(=O)NC(C)(C)C#Cc1ccc(Cl)cc1Cl [compound 1571] |  |  |  |  |  |  | Insecticidal effect (Test Example 3), judged from mortality [1, 4]: A (100); Insecticidal effect (Test Example 1), judged from mortality [2]: A (100); Insecticidal effect (Test Example 2), judged from mortality [3, 5]: A (100)
CC(C)NC(=O)c1cccc(Cl)c1C(=O)Nc1ccc(OC(F)F)cc1C(F)(F)F [compound 253] | C (89-80) | A (100) | A (100) |  |  |  | 
Cc1cc(Oc2ncc(C(F)(F)F)cc2Cl)ccc1NC(=O)c1cccc(Br)c1C(=O)NC(C)C [compound 298] | A (100) | A (100) | A (100) |  |  |  | 
COCC(C)NC(=O)c1c(I)cccc1C(=O)Nc1ccc(C(F)(F)C(F)(F)F)cc1C (stereo not drawn) [compound 1031] |  |  |  | A (100) | A (100) | A (100) | 
Cc1cc(OC(F)(F)F)ccc1NC(=O)c1cccc(I)c1C(=O)NC(C)C [compound 386] | A (100) | A (100) | A (100) |  |  |  | 
CC(C)NC(=O)c1c(I)cccc1C(=O)Nc1ccc2nc(C(F)(F)C(F)(F)C(F)(F)F)oc2c1 [compound 1636] |  |  |  |  |  |  | Insecticidal effect (Test Example 3), judged from mortality [1, 4]: A (100); Insecticidal effect (Test Example 1), judged from mortality [2]: A (100); Insecticidal effect (Test Example 2), judged from mortality [3, 5]: D (79-50)
Cc1cc(Sc2ccc(Cl)cc2)ccc1NC(=O)c1cccc(F)c1C(=O)NC(C)C [compound 522] |  |  |  |  |  |  | Insecticidal effect on rice leafroller (Test Example 3), judged grade [1]: A (100); Insecticidal effect on diamondback moth (Test Example 1), judged grade [2]: A (100); Insecticidal effect on common cutworm (Test Example 2), judged grade [3]: D (79-50)
Cc1cc(Oc2ccc(C(F)(F)F)cn2)ccc1NC(=O)c1cccc(Br)c1C(=O)NC(C)C [compound 299] | A (100) | A (100) | A (100) |  |  |  | 
CC(C)NC(=O)c1c(I)cccc1C(=O)Nc1ccc(OC(F)(F)F)cc1Cl [compound 408] | A (100) | A (100) | B (99-90) |  |  |  | 
Cc1ccc(Cl)cc1NC(=O)c1cccc(F)c1C(=O)NC(C)C [compound 491] |  |  |  |  |  |  | Insecticidal effect on rice leafroller (Test Example 3), judged grade [1]: A (100); Insecticidal effect on diamondback moth (Test Example 1), judged grade [2]: A (100); Insecticidal effect on common cutworm (Test Example 2), judged grade [3]: A (100)
